SMILES strings stand for the structures.

Usually IC50 stands for the concentration that gives 50% inhibition.

Test [1] deals with CAR-induced swelling and thermal hyperalgesia. The test is described as follows: Anti-hyperalgesic effect in animals (carrageenan injected into rat knee joint; swelling, Hargreaves test). The test is classed as in vivo. The conditions noted are these: intra-articular administration 30 minutes before CAR, TAC 10 μg/joint. The method, then:
In order to induce an inflammation reaction, a carrageenan solution (CAR, 1%, 50 μl) was injected intra-articularly on one side into a rat knee joint. The uninjected side was used for control purposes. Six animals per group were used. The […] was determined by means of a micrometer screw (medial-lateral on the knee joint), and the thermal hyperalgesia was determined by means of a directed infrared light source by the Hargreaves method (Hargreaves et al., 1988) on the sole of the foot. Since the site of inflammation (knee joint) is different from the site of measurement (paw sole), use is made here of the term secondary thermal hyperalgesia, the mechanism of which is of importance for the discovery of effective analgesics.
Experimental description of thermal hyperalgesia (Hargreaves test): the experimental animal is placed in a plastic chamber on a quartz sheet. Before testing, the experimental animal is firstly given about 5-15 minutes time to familiarise itself with the environment. […] Light reflected by the paw is recorded as long as the experimental animal sits still. Withdrawal of the paw interrupts this reflection, after which the infrared light source is switched off and the time from switching on to switching off is recorded. […]

In test [2] the test system is proMMP13 production by SW1353 cells. The test is described as follows: Production of MMP13 (proMMP13 ELISA) by SW1353 cells upon stimulation with collagen type II. It is filed as cell-based. The conditions noted are these: Homo sapiens, SW1353, 72 h, read-out: IC50 [pro-MMP13]. On the procedure: The binding of Collagen type II to the DDR2 receptor of the SW1353 cells initiate a signalling cascade resulting in the increase of MMP13 expression. MMP13 is released in the culture medium in its pro-form, the proMMP13 which can be measured with an ELISA.
DDR2 inhibitors are evaluated for their ability to block this signalling cascade and therefore proMMP13 production upon collagen stimulation.
SW1353 cells (ATCC, HTB-94), conserved in liquid nitrogen, are thawed and cultivated at 1.6.10^6 cells in a T75 in RPMI1640 supplemented with 2 mM Glutamin, 1 mM Na-Pyruvate, 10% FCS, at 37° C., 5% CO2 for three days. SW1353 cells are then harvested with trypsin/EDTA and resuspended in RPMI1640 supplemented with 2 mM Glutamin, 1 mM Na-Pyruvate, 25 mM HEPES and 0.5% FCS (assay medium) and inoculated in a 96 well plate at 30 000 cells/well in 100 μL of the assay medium and further incubated 24 hours at 37°, 5% CO2 to enable cell adhesion. For stimulation of the DDR2 receptor, 50 μL of a collagen type II solution 160 μg/mL (final concentration in the well is 40 μg/mL) will be added in each well as well as 50 μL of the different dilutions of the inhibitors (MSCs) from 0.003 μM to 10 μM (final concentration in the plate). Each condition is performed in four-plicates. After three additional days of culture, the supernatant will be harvested for proMMP13 measurement.
The Different Controls Present on Each Plate are Composed of Assay Medium with: Positive control (with the reference compound): 40 μg/mL Collagen type II, 0.03 μM Dasatinib (reference compound) in 0.1% DMSO Negative control (no inhibition): 40 μg/mL Collagen type II and 0.1% DMSO Medium control (no stimulation): 0.005% Acetic acid and 0.1% DMSO All wells contains 0.1% DMSO and 0.005% acetic acid.
The solutions needed are: • Collagen type II is diluted at 2 mg/mL in 0.25% acetic acid. This stock solution can be stored at 4° C. for a week and is diluted 1/12.5 in the assay medium (to obtain 160 μg/mL in 0.02% acetic acid) before being used in the assay. • MSCs from 0.012 to 40 μM in assay medium with 0.4% DMSO (they are then further diluted ¼ in the assay plate) • Dasatinib 0.12 μM in assay medium with 0.4% DMSO (it is then further diluted ¼ in the assay plate) • Acetic acid 0.02% in assay medium (control).
The harvested supernatants are either directly used or stored at −20° C. until use. ProMMP13 is measured with a commercial ELISA kit, according the recommendation of the manufacturer (see Annex). Briefly, 50 μL of each samples are used undiluted and the standard curve is realised in the assay medium. At the end of the assay the ELISA plate is read on a Paradigm MTP-Reader (Beckman Coulter) at 540 (reference wavelength) and 450 nm. All the absorbance values obtained at 450 nm are corrected with the absorbance at 540 nm and a ‘Four Parameter Fit’ is used to establish the standard curve. From the standard curve the concentrations of proMMP13 in all the samples are calculated. All the calculations are realised by the Paradigm software.
The data reported in the database are the % effect of the compounds at the two highest concentrations (10 and 3 μM) as well as the IC50.
% effect at the two highest concentrations is calculated according to the formula: […]
The IC50s are calculated with the software Graph Pad Prism (see tables in Example 1).

Test [3] deals with T1, His-tagged human recombinant DDR-2 kinase domain (His-TEV-DDR2 467-855 aa) (Homo sapiens, UniProt Q16832).
T1 construct: His-TEV-DDR2 467-855 aa
T1 sequence (Q16832 467-855): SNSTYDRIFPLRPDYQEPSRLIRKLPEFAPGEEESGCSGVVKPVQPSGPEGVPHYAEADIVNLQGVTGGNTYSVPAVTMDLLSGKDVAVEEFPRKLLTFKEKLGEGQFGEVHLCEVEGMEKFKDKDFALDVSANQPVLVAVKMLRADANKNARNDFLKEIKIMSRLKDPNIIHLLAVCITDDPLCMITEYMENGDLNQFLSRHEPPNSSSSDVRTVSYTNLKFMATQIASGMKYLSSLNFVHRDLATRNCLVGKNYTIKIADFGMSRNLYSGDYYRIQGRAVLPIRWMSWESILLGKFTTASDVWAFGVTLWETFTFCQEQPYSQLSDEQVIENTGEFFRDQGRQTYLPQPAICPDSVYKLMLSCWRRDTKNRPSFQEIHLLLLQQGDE
The test is described as follows: Autophosphorylation assay for biochemical activity testing of DDR2 (HTRF). As to conditions: 4 nM DDR2 kinase domain, 150 μM ATP, 150 min at 22° C. In short, it runs like this:
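Phospho-tyrosine was detected by HTRF between XL665 anti-6His and cryptate anti-phosphotyrosine PT66 antibodies, using the emission ratio. Inhibition was referenced to the inhibitor-free reaction.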
In general terms: TR-FRET usually uses a lanthanide donor and a delayed reading to cut background.

Consider `C[C@]12C=CC(=O)C=C1CC[C@H]1[C@@H]3C[C@@H](O)[C@](O)(C(=O)CO)[C@@]3(C)C[C@H](O)[C@@]12F` [TAC, Triamcinolone], for which the CAR-induced swelling entry in test [1] is reported as “capable of reducing the CAR-induced swelling”.
On to `CNC(=O)c1cc(Oc2ccc(CNC(=O)Nc3cc(Cl)cnc3Cl)cc2)ccn1` [compound 8], for which the results for the IC50 in test [2] and in test [3] were 278 nM and 130 nM, respectively.

These data come from patent publication US20150225369A1, “DDR2 INHIBITORS FOR THE TREATMENT OF OSTEOARTHRITIS” (Merck Patent GmbH, priority 2012, published 2015).
